Consider one compound from ChEMBL document CHEMBL4028808, “Design and synthesis of selective CDK8/19 dual inhibitors: Discovery of 4,5-dihydrothieno[3',4':3,4]benzo[1,2-d]isothiazole derivatives” (Bioorg Med Chem, 2017).

pEC50: −log10 of the molar value. In brackets after ≈: the same amount, converted by molar mass. Activity calls are given as the source filed them. The calls are words filed in the database; no cut-off is given here.

The target in data set [1] is Vascular endothelial growth factor receptor 2 (Homo sapiens) (UniProt P35968). The experiment in a line: Inhibition of VEGFR2 (unknown origin) at <1 uM using biotinylated poly[Glu:Tyr] (4:1) as substrate pretreated for 5 mins followed by substrate addition measured after 10 mins by Alphascreen assay. A general note: In Alpha technology, singlet oxygen from a donor bead excites a nearby acceptor bead.

A short description of data set [2]: Aqueous solubility of the compound in DMSO at pH 6.8 by HPLC method. It counts as physicochemical.
For data set [3], the target named is Insulin receptor (Homo sapiens) (UniProt P06213). The data set can be described thus: Inhibition of IRK (unknown origin) at <1 uM using biotinylated poly[Glu:Tyr] (4:1) as substrate pretreated for 5 mins followed by substrate addition measured after 60 mins by Alphascreen assay.
The target of data set [4] is Cyclin-dependent kinase 8 (Homo sapiens, UniProt P49336). The experiment in a line: Inhibition of CDK8 in human SW480 cells assessed as decrease in STAT1 phosphorylation at Ser727 after 2 hrs by Western blot method. For orientation: A western blot detects proteins with antibodies after separation by electrophoresis.
Cyclin-dependent kinase 8, sequence (P49336 whole entry): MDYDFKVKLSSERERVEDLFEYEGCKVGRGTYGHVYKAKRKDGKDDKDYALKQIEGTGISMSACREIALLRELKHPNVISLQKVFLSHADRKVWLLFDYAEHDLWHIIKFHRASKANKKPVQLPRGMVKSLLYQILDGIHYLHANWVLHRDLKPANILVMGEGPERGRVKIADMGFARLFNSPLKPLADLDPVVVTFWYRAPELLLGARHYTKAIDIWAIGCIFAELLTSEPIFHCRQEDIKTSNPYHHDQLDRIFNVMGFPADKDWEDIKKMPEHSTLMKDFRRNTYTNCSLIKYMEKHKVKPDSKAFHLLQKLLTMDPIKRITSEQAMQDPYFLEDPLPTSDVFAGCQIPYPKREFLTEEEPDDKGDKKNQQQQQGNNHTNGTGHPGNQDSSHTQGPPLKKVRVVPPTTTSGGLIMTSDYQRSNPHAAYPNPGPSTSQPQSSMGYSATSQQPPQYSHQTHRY

Insulin receptor (Homo sapiens), sequence (P06213 28-758 limits assumed): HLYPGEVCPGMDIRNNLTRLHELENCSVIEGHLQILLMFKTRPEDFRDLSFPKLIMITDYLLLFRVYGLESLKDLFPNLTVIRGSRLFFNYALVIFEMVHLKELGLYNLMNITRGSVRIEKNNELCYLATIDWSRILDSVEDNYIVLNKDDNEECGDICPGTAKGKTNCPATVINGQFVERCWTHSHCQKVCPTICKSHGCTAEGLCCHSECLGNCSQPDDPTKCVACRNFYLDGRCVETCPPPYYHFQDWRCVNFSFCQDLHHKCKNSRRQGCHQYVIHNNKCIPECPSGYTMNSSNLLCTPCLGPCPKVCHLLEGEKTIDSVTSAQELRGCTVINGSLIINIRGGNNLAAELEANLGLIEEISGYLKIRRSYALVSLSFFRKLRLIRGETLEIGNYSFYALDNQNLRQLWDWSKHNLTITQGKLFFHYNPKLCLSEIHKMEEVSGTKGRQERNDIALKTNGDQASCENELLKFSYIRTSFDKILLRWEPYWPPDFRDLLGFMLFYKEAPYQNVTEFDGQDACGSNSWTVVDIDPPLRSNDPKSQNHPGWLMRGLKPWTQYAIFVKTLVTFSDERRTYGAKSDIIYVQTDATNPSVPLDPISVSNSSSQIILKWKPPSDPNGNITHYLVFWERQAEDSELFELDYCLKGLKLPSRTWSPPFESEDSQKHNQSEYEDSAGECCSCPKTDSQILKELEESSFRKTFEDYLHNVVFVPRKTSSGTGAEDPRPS
Insulin receptor (Homo sapiens), sequence (P06213 763-1382 limits assumed): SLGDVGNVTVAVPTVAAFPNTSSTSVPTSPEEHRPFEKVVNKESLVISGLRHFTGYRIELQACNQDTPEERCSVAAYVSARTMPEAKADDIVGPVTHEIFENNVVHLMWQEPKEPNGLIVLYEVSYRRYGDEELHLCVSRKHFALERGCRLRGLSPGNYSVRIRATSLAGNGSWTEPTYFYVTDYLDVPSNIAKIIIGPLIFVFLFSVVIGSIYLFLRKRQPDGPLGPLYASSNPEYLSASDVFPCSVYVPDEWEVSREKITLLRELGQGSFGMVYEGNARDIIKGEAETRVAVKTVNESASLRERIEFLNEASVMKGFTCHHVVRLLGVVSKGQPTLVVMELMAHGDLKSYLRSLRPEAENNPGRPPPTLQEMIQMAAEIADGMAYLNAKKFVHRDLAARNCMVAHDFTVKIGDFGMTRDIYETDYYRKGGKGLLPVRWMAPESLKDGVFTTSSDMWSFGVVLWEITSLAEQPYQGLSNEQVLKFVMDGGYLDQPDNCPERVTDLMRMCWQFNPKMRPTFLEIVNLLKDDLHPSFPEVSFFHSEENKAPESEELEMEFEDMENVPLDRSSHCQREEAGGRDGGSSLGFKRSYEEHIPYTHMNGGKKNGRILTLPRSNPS
Vascular endothelial growth factor receptor 2 (Homo sapiens), sequence (P35968 whole entry): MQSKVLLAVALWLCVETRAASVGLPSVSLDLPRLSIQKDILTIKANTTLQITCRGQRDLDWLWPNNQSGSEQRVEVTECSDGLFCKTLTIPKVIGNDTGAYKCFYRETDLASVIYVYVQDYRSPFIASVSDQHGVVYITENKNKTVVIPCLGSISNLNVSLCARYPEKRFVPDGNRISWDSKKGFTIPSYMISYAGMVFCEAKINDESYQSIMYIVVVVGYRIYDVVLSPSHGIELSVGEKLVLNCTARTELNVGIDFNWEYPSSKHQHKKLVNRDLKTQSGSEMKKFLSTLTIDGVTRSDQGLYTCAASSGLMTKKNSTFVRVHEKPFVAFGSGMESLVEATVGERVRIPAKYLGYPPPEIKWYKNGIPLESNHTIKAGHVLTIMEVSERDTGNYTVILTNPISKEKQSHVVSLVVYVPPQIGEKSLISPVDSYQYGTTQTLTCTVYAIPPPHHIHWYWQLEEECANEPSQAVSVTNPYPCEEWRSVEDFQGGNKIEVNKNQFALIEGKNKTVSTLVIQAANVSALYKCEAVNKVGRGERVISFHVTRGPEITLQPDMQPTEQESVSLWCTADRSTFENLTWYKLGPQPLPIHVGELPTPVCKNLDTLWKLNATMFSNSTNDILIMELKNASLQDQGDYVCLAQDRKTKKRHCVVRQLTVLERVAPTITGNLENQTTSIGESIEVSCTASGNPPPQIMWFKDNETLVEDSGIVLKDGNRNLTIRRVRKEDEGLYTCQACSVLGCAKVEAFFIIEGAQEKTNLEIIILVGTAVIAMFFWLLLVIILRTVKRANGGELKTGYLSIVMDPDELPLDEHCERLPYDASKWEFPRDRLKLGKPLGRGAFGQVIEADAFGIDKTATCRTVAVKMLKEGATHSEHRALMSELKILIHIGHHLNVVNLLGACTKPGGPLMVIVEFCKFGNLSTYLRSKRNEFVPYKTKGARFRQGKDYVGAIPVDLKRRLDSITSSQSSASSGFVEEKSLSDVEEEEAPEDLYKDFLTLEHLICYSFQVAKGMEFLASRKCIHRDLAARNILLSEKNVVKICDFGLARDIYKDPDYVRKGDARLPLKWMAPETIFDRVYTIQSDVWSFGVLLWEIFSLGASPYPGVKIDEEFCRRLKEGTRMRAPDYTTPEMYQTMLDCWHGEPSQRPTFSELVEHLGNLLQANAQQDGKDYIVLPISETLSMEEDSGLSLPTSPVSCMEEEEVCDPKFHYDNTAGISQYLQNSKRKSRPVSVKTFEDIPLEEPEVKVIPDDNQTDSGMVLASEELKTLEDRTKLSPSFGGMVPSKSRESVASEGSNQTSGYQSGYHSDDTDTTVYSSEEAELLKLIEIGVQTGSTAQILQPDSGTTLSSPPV

A word on the solubility: it is the concentration that dissolves in the medium under given conditions. High values mean much dissolved substance, low ones little dissolved substance. By pEC50 is commonly meant the negative decadic logarithm of the EC50, by convention in mol/L. `COCCNC(=O)c1ccc(Oc2sc(C(N)=O)c3c2-c2sncc2CC3)cn1`: the inhibition result in data set [1] and in data set [3] was “inactive” throughout. Also, the solubility in data set [2] was found to be 47 µg/mL (≈ 109 µM). Also, the pEC50 in data set [4] is 8.89.
